Laboratory results as given in ChEMBL document CHEMBL2303647, “Data associated with the publication PLoS ONE, 8(3), e57888, (2013) PMID: 23505445. Compounds: GSK PKIS; Assays: NIH NCATS”.

How the values were obtained:
[1] = target: T1, Coelenterazine h 2-monooxygenase (Renilla reniformis, UniProt P27652)
T1 sequence (P27652 whole entry): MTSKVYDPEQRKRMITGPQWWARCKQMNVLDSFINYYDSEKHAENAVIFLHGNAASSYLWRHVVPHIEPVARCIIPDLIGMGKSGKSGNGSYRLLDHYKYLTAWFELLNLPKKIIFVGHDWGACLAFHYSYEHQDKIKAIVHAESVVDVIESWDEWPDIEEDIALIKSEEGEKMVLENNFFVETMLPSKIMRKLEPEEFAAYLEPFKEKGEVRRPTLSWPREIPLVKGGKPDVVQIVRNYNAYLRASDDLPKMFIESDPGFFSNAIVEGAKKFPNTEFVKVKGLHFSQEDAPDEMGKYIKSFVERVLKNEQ
Description: GSK_PKIS: Inhibition of Sea Pansy Luciferase (Data from PubChem: AID 652015) [NIH NCATS]

[2] = target: Luciferin 4-monooxygenase (Photinus pyralis, UniProt P08659)
Chain of Luciferin 4-monooxygenase (P08659 whole entry): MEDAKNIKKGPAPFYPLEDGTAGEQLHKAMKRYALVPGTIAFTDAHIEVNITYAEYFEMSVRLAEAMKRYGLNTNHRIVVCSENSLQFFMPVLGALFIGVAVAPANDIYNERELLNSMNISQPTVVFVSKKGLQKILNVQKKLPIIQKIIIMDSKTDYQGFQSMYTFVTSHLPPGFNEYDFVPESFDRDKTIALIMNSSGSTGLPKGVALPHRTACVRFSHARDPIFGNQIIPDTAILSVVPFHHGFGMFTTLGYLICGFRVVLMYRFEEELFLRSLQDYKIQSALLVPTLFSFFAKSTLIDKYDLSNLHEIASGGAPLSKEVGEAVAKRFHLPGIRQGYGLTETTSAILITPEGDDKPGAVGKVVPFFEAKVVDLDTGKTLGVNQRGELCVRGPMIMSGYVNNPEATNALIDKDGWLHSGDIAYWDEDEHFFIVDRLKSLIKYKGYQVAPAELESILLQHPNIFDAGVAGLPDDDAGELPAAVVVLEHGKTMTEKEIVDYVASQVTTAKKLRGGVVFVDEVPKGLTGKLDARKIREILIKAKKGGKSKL
Description: GSK_PKIS: Inhibition of Firefly Luciferase (Data from PubChem: AID 652016) [NIH NCATS]

AC50 ([1]; read-out: AC50) [µM]	AC50 ([2]; read-out: AC50) [µM]	Structure (SMILES)	AC50 [1]	AC50 [2]
–	–	CCS(=O)(=O)c1ccc(OC)c(Nc2ncc(-c3cccc(C(C)=O)c3)o2)c1 [GW621431X]	Phenotype: Inactive; Curve_Description: None	Phenotype: Inactive; Curve_Description: None
–	–	CCOc1ccc2c(-c3ccnc(Nc4cccc(C(F)(F)F)c4)n3)cnn2n1 [GW811761X]	Phenotype: Inactive; Curve_Description: None	Phenotype: Inactive; Curve_Description: None
13	20.6	COC(=O)c1ccc2c(c1)C(=Cc1cc(Br)c(O)c(Br)c1)C(=O)N2 [GW405841X]	–	–
–	18.3	Cc1ccc(-c2cc3c(NC(=O)C4CC4)ncnc3o2)cc1 [GW819230X]	Phenotype: Inactive; Curve_Description: None	–
–	–	NC(=O)c1sc(-n2cnc3ccc(C(F)(F)F)cc32)cc1OCc1ccccc1Br [GW853606X]	Phenotype: Inactive; Curve_Description: None	Phenotype: Inactive; Curve_Description: None
–	–	Cc1cc(O)cc(C)c1/C=C/c1cncc(C(=O)N(C)C)c1 [GW427984X]	Phenotype: Inactive; Curve_Description: None	Phenotype: Inactive; Curve_Description: None
–	–	CC1=C(C(=O)Nc2cc(Cl)c3[nH]ncc3c2)C(c2ccc(C(F)(F)F)cc2)CC(=O)N1 (stereo not given) [GSK-466317A]	Phenotype: Inactive; Curve_Description: None	Phenotype: Inactive; Curve_Description: None
–	–	Cl.NC(=O)c1ccc(-c2nc(-c3ccccn3)c(-c3ccc4c(c3)OCO4)[nH]2)cc1	Phenotype: Inactive; Curve_Description: None	Phenotype: Inactive; Curve_Description: None
–	–	NS(=O)(=O)c1ccc(Nc2ncc(-c3ccccc3)o2)cc1 [GW572399X]	Phenotype: Inactive; Curve_Description: None	Phenotype: Inactive; Curve_Description: None
–	–	FC(F)(F)c1ccc(-c2nn3ncccc3c2-c2ccnc(Nc3ccc4c(c3)OCCO4)n2)cc1 [GW828525X]	Phenotype: Inactive; Curve_Description: None	Phenotype: Inactive; Curve_Description: None
–	29.1	NC(=O)c1ccc(Oc2nccc(-c3c(-c4ccc(F)cc4)ncn3C3CCNCC3)n2)cc1	Phenotype: Inactive; Curve_Description: None	–
–	–	COc1cc2ncn(-c3cc(OCc4ccccc4C(F)(F)F)c(C(C)=O)s3)c2cc1OC [GSK-1030059A]	Phenotype: Inactive; Curve_Description: None	Phenotype: Inactive; Curve_Description: None
36.6	–	Nc1ncc(-c2cccc(S(N)(=O)=O)c2)c2scc(-c3ccc(F)c(Cl)c3)c12 [GW856804X]	–	Phenotype: Inactive; Curve_Description: None
–	–	COc1cccc(-n2ncc3c(N/N=C/c4ccc(C)cc4)ncnc32)c1 [GW829877X]	Phenotype: Inactive; Curve_Description: None	Phenotype: Inactive; Curve_Description: None
–	20.6	CS(=O)(=O)CCNCc1ccoc1-c1ccc2ncnc(Nc3ccc(OCc4ccccc4)cc3)c2c1.Cl [GW568377A]	Phenotype: Inactive; Curve_Description: None	–
–	–	CS(=O)(=O)CCNCc1ccc(-c2ccc3ncnc(Nc4ccc(OCc5cccc(F)c5)c(C(F)(F)F)c4)c3c2)o1 [GW576484X]	Phenotype: Inactive; Curve_Description: None	Phenotype: Inactive; Curve_Description: None
23.1	–	COc1cc2c(cc1Nc1nc(N3CCc4ccccc43)c3cc[nH]c3n1)N(C(=O)CN(C)C)CC2 [GSK-2186269A]	–	Phenotype: Inactive; Curve_Description: None
–	–	NS(=O)(=O)c1ccc(N/N=C2\C(=O)Nc3ccc(C(=O)NCc4ccncc4)cc32)cc1 [GW300657X]	Phenotype: Inactive; Curve_Description: None	Phenotype: Inactive; Curve_Description: None
–	1.46	Cc1ccc(Nc2ccnc(Nc3cccc(C(N)=O)c3)n2)cc1O.Cl [GW575808A]	Phenotype: Inactive; Curve_Description: None	–
18.3	–	CCS(=O)(=O)c1ccc(OC)c(Nc2ncc(-c3cccc(OC)c3)o2)c1 [GW580509X]	–	Phenotype: Inactive; Curve_Description: None
–	–	Nc1ncnc2occ(-c3ccc(NC(=O)Nc4cc(C(F)(F)F)ccc4F)cc3)c12 [GW770249X]	Phenotype: Inactive; Curve_Description: None	Phenotype: Inactive; Curve_Description: None
–	–	Clc1ccc(-c2nn3ncccc3c2-c2ccnc(Nc3ccccc3)n2)cc1 [GW829055X]	Phenotype: Inactive; Curve_Description: None	Phenotype: Inactive; Curve_Description: None
–	–	COc1cc2ncn(-c3cc(OCCc4ccccc4)c(C(N)=O)s3)c2cc1OC [GSK-204925A]	Phenotype: Inactive; Curve_Description: None	Phenotype: Inactive; Curve_Description: None

AC50 ([1]; read-out: AC50) [µM]	AC50 ([2]; read-out: AC50) [µM]	Structure (SMILES)	AC50 [1]	AC50 [2]
23.1	–	COc1cc2ncn(-c3cc(OCc4ccccc4C(F)(F)F)c(C(=O)N(C)C)s3)c2cc1OC [GSK-1030062A]	–	Phenotype: Inactive; Curve_Description: None
–	41.1	CC1=C(C(=O)Nc2ccc3[nH]ncc3c2)C(c2ccc(F)cc2)N=C(c2ccc(C(F)(F)F)nc2)N1 (stereo not given) [GSK-317354A]	Phenotype: Activator; Curve_Description: None	–
–	–	Cl.Fc1ccc(-c2nc3n(c2-c2ccncc2)CCS3)cc1	Phenotype: Inactive; Curve_Description: None	Phenotype: Inactive; Curve_Description: None
–	1.03	COc1ccccc1Nc1ncc(-c2ccccc2)o1.Cl [GW577921A]	Phenotype: Inactive; Curve_Description: None	–
29.1	14.6	CN(C)CCOc1ccc(-c2nc(-c3ccncc3)c(-c3ccc4c(c3)CC/C4=N\O)[nH]2)cc1	–	–
–	20.6	CS(=O)(=O)Nc1cccc(-c2ccc3c(NC(=O)C4CC4)n[nH]c3c2)c1	Phenotype: Inactive; Curve_Description: None	–
–	–	Fc1ccc(-c2c(-c3ccncc3)nc3n2CCS3)cc1	Phenotype: Inactive; Curve_Description: None	Phenotype: Inactive; Curve_Description: None
–	–	Fc1ccc(-c2cc(-c3c[nH]nc3-c3ccccn3)ccn2)cc1 [GW680975X]	Phenotype: Inactive; Curve_Description: None	Phenotype: Inactive; Curve_Description: None
–	–	c1ccc(-c2n[nH]cc2-c2ccnc(-c3ccc(OCCN4CCOCC4)cc3)c2)nc1 [GW695874X]	Phenotype: Inactive; Curve_Description: None	Phenotype: Inactive; Curve_Description: None
32.6	–	NS(=O)(=O)c1ccc(N/C=C2\C(=O)Nc3ccc4ncsc4c32)cc1 [GW297361X]	–	Phenotype: Inactive; Curve_Description: None
23.1	–	CN(C)c1cc2c(Nc3ccc4c(cnn4Cc4ccccc4)c3)ncnc2cn1 [GW282974X]	–	Phenotype: Inactive; Curve_Description: None
–	–	CS(=O)(=O)CCN(CC#N)Cc1ccc(-c2ccc3ncnc(Nc4ccc(OCc5cccc(F)c5)c(Cl)c4)c3c2)o1 [GW616030X]	Phenotype: Inactive; Curve_Description: None	Phenotype: Inactive; Curve_Description: None
–	–	COC(=O)Nc1nc2cc(Oc3ccc(NC(=O)Nc4cccc(Br)c4)cc3)ccc2[nH]1.Cl [GW694234A]	Phenotype: Inactive; Curve_Description: None	Phenotype: Inactive; Curve_Description: None
–	–	Fc1cccc(COc2ccc(Nc3ncncc3C#Cc3ccccc3)cc2Cl)c1 [GW651576X]	Phenotype: Inactive; Curve_Description: None	Phenotype: Inactive; Curve_Description: None
–	–	Nc1ncnc2occ(-c3ccc(NC(=O)Nc4cccc(C(F)(F)F)c4)cc3)c12 [GW795493X]	Phenotype: Inactive; Curve_Description: None	Phenotype: Inactive; Curve_Description: None
25.9	–	COc1ccc2[nH]c3c4[nH]c5ccc(OC)cc5c4c4c(c3c2c1)C(=O)NC4=O [GW296115X]	–	Phenotype: Inactive; Curve_Description: None
–	9.19	CNC(=O)c1cncc(/C=C/c2ccccc2Cl)c1 [GW445017X]	Phenotype: Inactive; Curve_Description: None	–
–	–	CCn1c(-c2nonc2N)nc2c(N3CCCC3)nccc21	Phenotype: Inactive; Curve_Description: None	Phenotype: Inactive; Curve_Description: None
–	0.259	c1ccc(Nc2ncc(-c3ccccc3)o2)cc1 [GW549390X]	Phenotype: Inactive; Curve_Description: None	–
–	6.51	COc1ccc(-c2cc3c(N)ncnc3o2)cc1 [GW642138X]	Phenotype: Inactive; Curve_Description: None	–
–	18.3	Fc1ccc(-c2nn3ncccc3c2-c2ccnc(Nc3ccc4c(c3)OCCO4)n2)cc1 [GW827099X]	Phenotype: Inactive; Curve_Description: None	–
–	20.6	O=C(O[C@H]1CN[C@H](C#Cc2cc3ncnc(Nc4ccc(OCc5cccc(F)c5)c(Cl)c4)c3s2)C1)N1CCOCC1 [GW869810X]	Phenotype: Inactive; Curve_Description: None	–
–	–	Cn1c(-c2nonc2N)nc2cnccc21	Phenotype: Inactive; Curve_Description: None	Phenotype: Inactive; Curve_Description: None

Structure (SMILES)	AC50 ([1]; read-out: AC50) [µM]	AC50 ([2]; read-out: AC50) [µM]	AC50 [1]	AC50 [2]
Cc1ccc(NC(=O)c2ccnc(N3CCCC3)c2)cc1-c1ccc(C(=O)NCC2CC2)cc1 [GW769076X]	29.1	–	–	Phenotype: Inactive; Curve_Description: None
O=C1NC(=O)C(N2CCc3ccccc32)=C1c1ccc(Cl)cc1	20.6	6.51	–	–
CN(C)c1ccc2c(c1)/C(=C/Nc1ccc(S(N)(=O)=O)cc1)C(=O)N2 [GW416469X]	5.8	–	–	Phenotype: Inactive; Curve_Description: None
C#Cc1cccc(Nc2ncnc3ccc(OCCCCNCCS(C)(=O)=O)cc23)c1 [GW680191X]	29.1	–	–	Phenotype: Inactive; Curve_Description: None
